From PubChem BioAssay (NCI)
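Tested at 5 concentrations; 48 h exposure; 96-well plates; endpoints linearly interpolated, else capped at highest concentration. GI50 = concentration required for 50% inhibition of growth. TGI: total growth inhibition.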

The compounds below were run on SNB-75 CNS (assay: inhibition of tumour cell growth, NCI panel, 48 h).

Row | SMILES | TGI
1 | N/C(CSCCSC/C(N)=N/O)=N\O | > 100 µM

What follows are compounds tested on MDA-MB-435 (assay: inhibition of tumour cell growth, NCI panel, 48 h).

Row | SMILES | TGI | GI50
2 | CC(O)(C(=O)N(O)c1ccc(Cl)cc1)c1ccc(Cl)cc1 (stereo not drawn) | 87.8 µM | 
3 | CCOP(=O)(OCC)c1cc(-c2ccccc2)ccc1N | > 100 µM | 
4 | CC1(C)OC(CCO)CN1C(=O)OCc1ccccc1 (stereo not drawn) | > 100 µM | 
5 | COc1cc2c(cc1OCCCOc1cc3c(cc1OC)C(=O)N1CCC[C@H]1CN3)N=C[C@@H]1CCCN1C2=O | 0.29 µM | 
6 | COc1ccc(N2C(=O)C3c4[nH]c5ccccc5c4C4C(C)CCCC4C3C2=O)cc1 (stereo not drawn) | > 30.2 µM | 
7 | CCOC(=O)C1=C(C)NC(=O)N([N+](=O)[O-])C1c1ccccc1C(F)(F)F (stereo not drawn) | > 100 µM | 
8 | O=c1c(Cc2ccccc2)c(-c2ccccc2)[nH]n1C1=NCCN1 | > 100 µM | 
9 | Brc1ccc2c(c1)-c1nc3c(cc1CC2)CCc1ccc(Br)cc1-3 | > 100 µM | 
10 | CN1c2ccccc2C(=O)NC12CCN(CC1COc3ccccc3O1)CC2 (stereo not drawn) | > 100 µM | 
11 | CCOC(=O)c1ccc(C(=O)/C(C(=O)OC(C)(C)C)=C2\CCCN2C)n1C | > 100 µM | 
12 | O=C1c2c(c3c4ccc(Br)cc4oc3c3[nH]c4ccccc4c23)C(=O)N1O | > 100 µM | 3.11 µM
13 | O=[N+]([O-])c1ccc2nc3c(nc2c1)-c1c2ccccc2cc2cccc-3c12 | > 83.9 µM | 
14 | COc1ccc(CN2C(=O)C(=O)N(C)C2=O)c2ccccc12 | > 10 µM | 
15 | OCC1OC(O[C@H]2CN3[C@H](O)[C@@H](O)[C@H](O)[C@H]3C2O)C(O)C(O)C1O (stereo partly drawn) | > 100 µM | 
16 | CC1OC(n2cc(F)c(=O)[nH]c2=O)C(O[Si](C)(C)C(C)(C)C)C1O[Si](C)(C)C(C)(C)C (stereo not drawn) | 34.5 µM | 
17 | c1ccc(-c2ccc(N=NN3CCCC3)cc2)cc1 | > 100 µM | 
18 | COc1cc2c(cc1O)CC[n+]1cc3c(OC)c(OC)ccc3cc1-2 | > 100 µM | 
19 | NS(=O)(=O)c1nnc(NSc2ccc([N+](=O)[O-])cc2)s1 | > 100 µM | 
20 | Nc1nc(Nc2ccc(OCc3cccc(F)c3)cc2)c2c(n1)[nH]c1ccc(O)cc12 | 14.1 µM | 3.68 µM
21 | CC1=NC(C)(C)N(O)C1(C)C | > 100 µM | 

Row | SMILES | TGI | GI50
22 | O=c1oc2ccccc2c2nc3ccccc3cc12 | > 100 µM | 
23 | CCCC[C@@H]1CCN2C[C@@H](O)[C@@H](O)[C@H]2[C@@H]1O | > 100 µM | 
24 | Clc1cccc(C2ON=C(c3ccccc3)N2C23CC4CC(CC(C4)C2)C3)c1Cl (stereo not drawn) | > 10 µM | 
25 | CCN(CC(=O)O)CC(=O)O | > 100 µM | 
26 | Cc1cc(C)nc(NS(=O)(=O)c2ccc(Nc3c4ccccc4nc4c(C(=O)NCCO)cccc34)cc2)n1 | 40.7 µM | 
27 | COC1OC2COC(C)(C)OC2C2OC(C)(C)OC12 (stereo not drawn) | > 100 µM | 
28 | CCNC(=S)N/N=C/c1ccccn1 | > 100 µM | 
29 | O=C1NN=C(c2c[nH]c3ccccc23)CC1NCc1ccccc1 (stereo not drawn) | > 100 µM | 
30 | C=C1CC=CC(C)(C)C1C/C=C(\C)C(O)CBr (stereo not drawn) | > 100 µM | 
31 | O=C(NCCCNCCCCNCCCNC(=O)C(F)(F)F)C(F)(F)F | > 100 µM | 
32 | O=C(O)c1cc2ccccc2c(S(=O)(=O)O)c1O | > 100 µM | 
33 | COC(=O)c1sc2ncc3c(c2c1N)CC(C)CC3 (stereo not drawn) | > 100 µM | 
34 | CCc1cc(=O)n(/C(C)=C/c2ccccc2)n1C | > 100 µM | 
35 | CCOC(=O)c1[nH]c2nc(SC)nc(NC)c2c1N | > 100 µM | 
36 | Cc1cccc(NC(Nc2cccc(C)c2)=C(C(Cl)=C(Cl)Cl)[N+](=O)[O-])c1 | 28.7 µM | 
37 | CC1=CCC[C@H]2[C@](C)(CC3=CC(=O)C4SCCSC4C3=O)[C@@H](C)CC[C@]12C (stereo partly drawn) | 58.7 µM | 
38 | C/C(=N\Nc1nc2ccccc2s1)c1cccnn1 | > 100 µM | 
39 | COC(=O)C1=C(C(=O)OC)C2(C)CCC(=O)C1O2 (stereo not drawn) | > 10 µM | 
40 | FC(F)=C(c1ccc(-c2ccc(Cl)cc2)cc1)C(F)(F)F | 49.4 µM | 
41 | N/C(CSCCSC/C(N)=N/O)=N\O | > 100 µM | 

Each compound was assayed on HL-60(TB) leukemia (assay: inhibition of tumour cell growth, NCI panel, 48 h).

Row | SMILES | TGI | GI50
42 | CC(O)(C(=O)N(O)c1ccc(Cl)cc1)c1ccc(Cl)cc1 (stereo not drawn) | 35.9 µM | 
43 | CC1(C)OC(CCO)CN1C(=O)OCc1ccccc1 (stereo not drawn) | > 100 µM | 
44 | COc1cc2c(cc1OCCCOc1cc3c(cc1OC)C(=O)N1CCC[C@H]1CN3)N=C[C@@H]1CCCN1C2=O | 0.68 µM | 
45 | CCOC(=O)C1=C(C)NC(=O)N([N+](=O)[O-])C1c1ccccc1C(F)(F)F (stereo not drawn) | > 100 µM | 
46 | O=c1c(Cc2ccccc2)c(-c2ccccc2)[nH]n1C1=NCCN1 | > 100 µM | 
47 | CN1c2ccccc2C(=O)NC12CCN(CC1COc3ccccc3O1)CC2 (stereo not drawn) | > 100 µM | 
48 | CCOC(=O)C(NC(=O)c1ccc(N=NN(C)C)cc1)C(C)C (stereo not drawn) | > 100 µM | 
49 | COc1cc(CCCOC2OC(COC3OCC(O)C(O)C3O)C(O)C(O)C2O)cc2cc(-c3ccc4c(c3)OCO4)oc12 (stereo not drawn) | > 175 µM | 
50 | CCOC(=O)c1ccc(C(=O)/C(C(=O)OC(C)(C)C)=C2\CCCN2C)n1C | 70.5 µM | 
51 | O=[N+]([O-])c1ccc2nc3c(nc2c1)-c1c2ccccc2cc2cccc-3c12 | > 100 µM | 
52 | COc1ccc(CN2C(=O)C(=O)N(C)C2=O)c2ccccc12 | > 10 µM | 
53 | OCC1OC(O[C@H]2CN3[C@H](O)[C@@H](O)[C@H](O)[C@H]3C2O)C(O)C(O)C1O (stereo partly drawn) | > 100 µM | 
54 | CC1OC(n2cc(F)c(=O)[nH]c2=O)C(O[Si](C)(C)C(C)(C)C)C1O[Si](C)(C)C(C)(C)C (stereo not drawn) | 45.1 µM | 
55 | CCOC(=O)c1c(NC(=S)Nc2ccc(C)cc2)sc2c1CCN(C)C2 | > 100 µM | 
56 | c1ccc([P+](Cc2csnn2)(c2ccccc2)c2ccccc2)cc1 | > 100 µM | 
57 | COc1cc2c(cc1O)CC[n+]1cc3c(OC)c(OC)ccc3cc1-2 | > 100 µM | 
58 | Nc1nc(Nc2ccc(OCc3cccc(F)c3)cc2)c2c(n1)[nH]c1ccc(O)cc12 | 4.21 µM | 2010 nM

Row | SMILES | TGI | GI50
59 | CCC1(CC)C(=O)NC(=S)N=C1N | > 100 µM | 
60 | CC1=NC(C)(C)N(O)C1(C)C | > 100 µM | 
61 | O=c1oc2ccccc2c2nc3ccccc3cc12 | > 100 µM | 
62 | CCCC[C@@H]1CCN2C[C@@H](O)[C@@H](O)[C@H]2[C@@H]1O | > 100 µM | 
63 | O=C(NN1C(=O)CSC1c1ccc(Cl)c(Cl)c1)c1ccncc1 (stereo not drawn) | > 100 µM | 
64 | Cc1cc(C)nc(NS(=O)(=O)c2ccc(Nc3c4ccccc4nc4c(C(=O)NCCO)cccc34)cc2)n1 | > 100 µM | 
65 | CCNC(=S)N/N=C/c1ccccn1 | 23.2 µM | 
66 | O=C1NN=C(c2c[nH]c3ccccc23)CC1NCc1ccccc1 (stereo not drawn) | > 100 µM | 
67 | C=C1CC=CC(C)(C)C1C/C=C(\C)C(O)CBr (stereo not drawn) | > 100 µM | 
68 | O=C(NCCCNCCCCNCCCNC(=O)C(F)(F)F)C(F)(F)F | > 100 µM | 
69 | CCOC(=O)C(C)NC(=O)N(C)C12CC3CC(CC(C3)C1)C2 (stereo not drawn) | 272 µM | 
70 | O=C(O)c1cc2ccccc2c(S(=O)(=O)O)c1O | > 100 µM | 
71 | O=c1c2cc3c(=O)n(CCc4ccccc4CO)c(=O)c3cc2c(=O)n1CCc1ccccc1CO | > 100 µM | 
72 | COC(=O)C1=C(C(=O)OC)C2(C)CCC(=O)C1O2 (stereo not drawn) | > 10 µM | 
73 | FC(F)=C(c1ccc(-c2ccc(Cl)cc2)cc1)C(F)(F)F | > 100 µM | 
74 | N/C(CSCCSC/C(N)=N/O)=N\O | > 100 µM | 

Each compound was assayed on OVCAR-4 ovarian (assay: inhibition of tumour cell growth, NCI panel, 48 h).

Row | SMILES | TGI | GI50
75 | CC(O)(C(=O)N(O)c1ccc(Cl)cc1)c1ccc(Cl)cc1 (stereo not drawn) | > 100 µM | 
76 | CCOP(=O)(OCC)c1cc(-c2ccccc2)ccc1N | > 100 µM | 
77 | CC1(C)OC(CCO)CN1C(=O)OCc1ccccc1 (stereo not drawn) | > 100 µM | 
78 | COc1cc2c(cc1OCCCOc1cc3c(cc1OC)C(=O)N1CCC[C@H]1CN3)N=C[C@@H]1CCCN1C2=O | > 36.5 µM | 
79 | COc1ccc(N2C(=O)C3c4[nH]c5ccccc5c4C4C(C)CCCC4C3C2=O)cc1 (stereo not drawn) | > 100 µM | 
80 | CCOC(=O)C1=C(C)NC(=O)N([N+](=O)[O-])C1c1ccccc1C(F)(F)F (stereo not drawn) | > 100 µM | 
81 | O=c1c(Cc2ccccc2)c(-c2ccccc2)[nH]n1C1=NCCN1 | > 100 µM | 
82 | Brc1ccc2c(c1)-c1nc3c(cc1CC2)CCc1ccc(Br)cc1-3 | > 100 µM | 
83 | CN1c2ccccc2C(=O)NC12CCN(CC1COc3ccccc3O1)CC2 (stereo not drawn) | > 100 µM | 
84 | CCOC(=O)C(NC(=O)c1ccc(N=NN(C)C)cc1)C(C)C (stereo not drawn) | > 100 µM | 
85 | COc1cc(CCCOC2OC(COC3OCC(O)C(O)C3O)C(O)C(O)C2O)cc2cc(-c3ccc4c(c3)OCO4)oc12 (stereo not drawn) | > 175 µM | 
86 | CCOC(=O)c1ccc(C(=O)/C(C(=O)OC(C)(C)C)=C2\CCCN2C)n1C | > 100 µM | 
87 | O=[N+]([O-])c1ccc2nc3c(nc2c1)-c1c2ccccc2cc2cccc-3c12 | > 100 µM | 
88 | COc1ccc(CN2C(=O)C(=O)N(C)C2=O)c2ccccc12 | > 10 µM | 
89 | OCC1OC(O[C@H]2CN3[C@H](O)[C@@H](O)[C@H](O)[C@H]3C2O)C(O)C(O)C1O (stereo partly drawn) | > 100 µM | 
90 | CC1OC(n2cc(F)c(=O)[nH]c2=O)C(O[Si](C)(C)C(C)(C)C)C1O[Si](C)(C)C(C)(C)C (stereo not drawn) | 16.8 µM | 
91 | c1ccc([P+](Cc2csnn2)(c2ccccc2)c2ccccc2)cc1 | > 100 µM | 
92 | c1ccc(-c2ccc(N=NN3CCCC3)cc2)cc1 | > 100 µM | 
93 | COc1cc2c(cc1O)CC[n+]1cc3c(OC)c(OC)ccc3cc1-2 | > 100 µM | 
94 | NS(=O)(=O)c1nnc(NSc2ccc([N+](=O)[O-])cc2)s1 | > 100 µM | 
95 | Nc1nc(Nc2ccc(OCc3cccc(F)c3)cc2)c2c(n1)[nH]c1ccc(O)cc12 | 6.04 µM | 2180 nM
96 | CCC1(CC)C(=O)NC(=S)N=C1N | > 100 µM | 
97 | CC1=NC(C)(C)N(O)C1(C)C | > 100 µM | 
98 | O=c1oc2ccccc2c2nc3ccccc3cc12 | 47.7 µM | 
99 | CCCC[C@@H]1CCN2C[C@@H](O)[C@@H](O)[C@H]2[C@@H]1O | > 100 µM | 
